Source: ChEMBL document CHEMBL1146896, “Synthesis and monoamine transporter affinity of 2beta-carbomethoxy-3beta-(4'-p-substituted phenyl)-piperidine analogs of cocaine” (Bioorg Med Chem Lett, 2006)

How the values were obtained:
[1] = molecular target: Norepinephrine transporter (Rattus norvegicus, UniProt Q9WTR4); experiment: Displacement of [3H]nisoxetine from NET in rat cerebral cortex; assay type: tissue-based
[2] = molecular target: Sodium-dependent dopamine transporter (Rattus norvegicus, UniProt P23977); experiment: Displacement of [3H]beta-CIT from DAT in rat caudate homogenate
Sequence of Sodium-dependent dopamine transporter (P23977 whole entry): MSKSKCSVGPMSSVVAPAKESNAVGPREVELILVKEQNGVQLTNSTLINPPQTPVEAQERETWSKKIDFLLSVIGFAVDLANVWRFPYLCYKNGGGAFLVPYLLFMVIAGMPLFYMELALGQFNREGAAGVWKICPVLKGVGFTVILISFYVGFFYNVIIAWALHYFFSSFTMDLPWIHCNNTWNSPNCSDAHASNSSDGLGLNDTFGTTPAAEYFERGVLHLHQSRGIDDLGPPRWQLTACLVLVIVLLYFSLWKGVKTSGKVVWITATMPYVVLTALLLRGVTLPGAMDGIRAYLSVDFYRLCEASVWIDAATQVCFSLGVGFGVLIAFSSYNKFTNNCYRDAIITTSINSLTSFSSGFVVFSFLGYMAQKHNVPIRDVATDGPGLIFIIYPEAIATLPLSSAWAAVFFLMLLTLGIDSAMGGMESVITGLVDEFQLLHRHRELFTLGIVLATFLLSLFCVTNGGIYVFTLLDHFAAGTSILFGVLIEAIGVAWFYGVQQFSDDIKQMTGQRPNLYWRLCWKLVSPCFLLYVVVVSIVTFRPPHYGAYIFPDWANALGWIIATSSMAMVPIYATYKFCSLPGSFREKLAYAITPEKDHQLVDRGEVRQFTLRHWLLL

[3] = molecular target: Monoamine transporters; serotonin & dopamine (Rattus norvegicus) (UniProt P31652+P23977); experiment: Selectivity for SERT over DAT; assay type: protein assay
Sequence of Monoamine transporters; serotonin & dopamine (Rattus norvegicus) (P23977 whole entry, looked up): as the sequence (P23977 whole entry) above
Sequence of Monoamine transporters; serotonin & dopamine (Rattus norvegicus) (P31652 whole entry, looked up): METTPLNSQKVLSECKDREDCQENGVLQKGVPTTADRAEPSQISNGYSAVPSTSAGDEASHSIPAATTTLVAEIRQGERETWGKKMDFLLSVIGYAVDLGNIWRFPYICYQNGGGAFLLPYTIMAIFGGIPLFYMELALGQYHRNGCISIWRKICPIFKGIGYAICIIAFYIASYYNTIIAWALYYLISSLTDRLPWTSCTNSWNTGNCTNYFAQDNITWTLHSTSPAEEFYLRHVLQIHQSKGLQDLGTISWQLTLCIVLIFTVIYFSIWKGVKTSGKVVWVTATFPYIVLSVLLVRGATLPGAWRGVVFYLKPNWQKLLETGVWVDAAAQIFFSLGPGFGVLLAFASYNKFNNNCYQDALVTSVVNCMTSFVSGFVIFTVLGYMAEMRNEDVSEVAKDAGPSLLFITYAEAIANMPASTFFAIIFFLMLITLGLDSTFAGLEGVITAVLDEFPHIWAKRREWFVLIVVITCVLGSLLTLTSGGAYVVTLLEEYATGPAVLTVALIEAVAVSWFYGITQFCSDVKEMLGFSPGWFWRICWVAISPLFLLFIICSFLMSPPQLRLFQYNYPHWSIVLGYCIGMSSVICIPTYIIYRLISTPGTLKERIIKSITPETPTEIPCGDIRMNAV

[4] = molecular target: Monoamine transporters; Norepinephrine & serotonin (Rattus norvegicus) (UniProt P31652+Q9WTR4); experiment: Selectivity for SERT over NET; assay type: protein assay
[5] = molecular target: Sodium-dependent serotonin transporter (Rattus norvegicus, UniProt P31652); experiment: Displacement of [3H]cyanoimipramine from SERT in rat cerebral cortex homogenate; assay type: tissue-based
Sequence of Sodium-dependent serotonin transporter (P31652 whole entry): as the sequence (P31652 whole entry, looked up) above

Sequence of Norepinephrine transporter (Q9WTR4 whole entry): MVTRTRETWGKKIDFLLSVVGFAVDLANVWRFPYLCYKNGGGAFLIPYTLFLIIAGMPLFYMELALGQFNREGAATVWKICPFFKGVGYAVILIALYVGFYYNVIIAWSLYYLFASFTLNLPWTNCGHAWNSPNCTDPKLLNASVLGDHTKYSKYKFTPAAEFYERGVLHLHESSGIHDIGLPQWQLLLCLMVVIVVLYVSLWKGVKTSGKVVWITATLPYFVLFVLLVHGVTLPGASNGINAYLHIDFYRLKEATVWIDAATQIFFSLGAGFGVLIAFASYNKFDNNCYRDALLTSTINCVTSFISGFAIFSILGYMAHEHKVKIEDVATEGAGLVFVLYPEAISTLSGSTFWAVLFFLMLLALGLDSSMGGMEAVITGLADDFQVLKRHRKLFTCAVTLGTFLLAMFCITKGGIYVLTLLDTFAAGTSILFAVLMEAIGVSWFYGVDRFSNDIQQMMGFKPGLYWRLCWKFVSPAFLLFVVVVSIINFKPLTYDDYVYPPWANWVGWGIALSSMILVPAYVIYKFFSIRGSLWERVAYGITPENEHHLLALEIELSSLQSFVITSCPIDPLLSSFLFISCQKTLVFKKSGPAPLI

Structure (SMILES)	Ki [1]	Ki [2]	Ratio Ki [3]	Ratio Ki [4]	Ki [5]
COC(=O)[C@@H]1CN(C)CC[C@@H]1c1ccc(-c2ccco2)cc1	> 50000 nM	205 nM	11.1	> 2700	18.5 nM
COC(=O)[C@@H]1CN(C)CC[C@@H]1c1ccc(/C=C\I)cc1	> 30000 nM	123 nM	15.6	> 3800	7.9 nM
COC(=O)[C@H]1[C@@H](c2ccc(I)cc2)C[C@@H]2CC[C@H]1N2C	2.8 nM	0.96 nM	2.1	6.1	
COC(=O)[C@@H]1CN(C)CC[C@@H]1c1ccc(-c2nccs2)cc1 (racemic) [listing 1 of 2 here]	> 20000 nM	> 10000 nM			> 5000 nM
COC(=O)[C@@H]1CN(C)CC[C@@H]1c1ccc(-c2nccs2)cc1 [listing 1 of 2 here]			1	5	
COC(=O)[C@@H]1CN(C)CC[C@@H]1c1ccc(C=O)cc1	> 30000 nM	> 10000 nM	5.8	17.3	1730 nM
COC(=O)[C@@H]1CN(C)CC[C@@H]1c1ccc(I)cc1		195 nM	11.2	59.9	167 nM
COC(=O)[C@@H]1CN(C)CC[C@@H]1c1ccc(-c2ccsc2)cc1	> 10000 nM	598 nM	188	> 3140	31.8 nM
COC(=O)[C@@H]1CN(C)CC[C@@H]1c1ccc(-c2nccs2)cc1 [listing 2 of 2 here]	> 50000 nM				> 10000 nM
COC(=O)[C@@H]1CN(C)CC[C@@H]1c1ccc(-c2cccs2)cc1	> 50000 nM	≥ 5000 nM	> 55	> 551	90.8 nM
COC(=O)[C@@H]1CN(C)CC[C@@H]1c1ccc(-c2nccs2)cc1 (racemic) [listing 2 of 2 here]			2	4	
